Results reported in US5830697A, “P-glycoprotein mutant resistant to cyclosporin modulation” (The Board of Trustees of the Leland Stanford Junior …, priority 1997, dated 1998).
Where two headings read alike, the source gives them in different places. Values belong to the compound of their own block, whether it stands above or below them.

Key:
MES-SA/Dx5 (Dx5) cells = assay: Growth inhibition (MTT) assay, with or without MDR modulators; format: cell-based, human
Protocol: (§1) Cells and Tissue Culture. Details of the development and characterization of the human cell line MES-SA and its MDR variant MES-SA/Dx5 (D×5), which were derived from sarcoma elements of a uterine mixed Mullerian tumor, are described in Harker and Sikic (1985) Cancer Research 45:3810-3815. MES-SA/DxP5002 (DxP) cells were derived from Dx5.05 cells (D×5 cells selected and maintained at a DOX concentration of 0.5 μM) by step-wise selection in the presence of increasing DOX concentrations (from 40 nM up to 0.5 μM) and a constant PSC 833 concentration at 2 μM over a one-year period. Monolayer cultures of MES-SA cells and its variants were grown in McCoy's medium (Irvine Scientific, Santa Ana, Calif.) supplemented with 10% newborn calf serum (Gibco, Grand Island, N.Y.), 2 mM L-glutamine, and antibiotics(100 U/ml penicillin, 100 μg/ml streptomycin).
(§2) Growth Inhibition Assay. Approximately 8000 cells per well were seeded in 96 well plates and incubated with or without drugs for 72 hr at 37° C. in an atmosphere of 5% CO2. Growth inhibition was evaluated by the MTT colorimetric assay in triplicate or quadruplicate as previously described. The absorbance was measured with a ThermoMax microplate reader (Molecular Devices, Menlo Park, Calif.). The IC50 (drug concentration resulting in 50% inhibition of MTT dye formation, compared to controls) was determined directly from semi-logarithmic dose-response curves. The doubling times of MES-SA, D×5, and D×P were determined as previously described.
(§3) Reversal of MDR by Modulators. […] The modulation ratio was obtained by comparing IC50 s in the presence and absence of modulators.

[1] = tested on: MES-SA/DxP5002 (DxP) cells; assay: as above
Protocol: Cells and Tissue Culture. […] Monolayer cultures of MES-SA cells and its variants were grown in McCoy's medium (Irvine Scientific, Santa Ana, Calif.) supplemented with 10% newborn calf serum (Gibco, Grand Island, N.Y.), 2 mM L-glutamine, and antibiotics(100 U/ml penicillin, 100 μg/ml streptomycin).
as §2, with “The IC50 (drug concentration resulting in 50% inhibition of MTT dye formation, compared to controls) was determined directly from semi-logarithmic dose-response curves.” left out
as §3

Dx5 cells [2] = assay: Rh-123 retention, flow cytometry; format: cell-based, human
Protocol: Flow Cytometric Analysis. The flow cytometric analysis of Rh-123 retention and P-gp expression were determined by a dual laser flow cytometer (FACS-II™; Becton Dickinson Corp., Mountain View, Calif.). Double labeling with Rh-123 and the monoclonal antibody UIC2 (Immunotech Coporation, Westbrook, Me.) was performed as previously described. Briefly, following the Rh-123 incubation step, cells were treated with UIC2 (40 μg/ml) and then reacted with either Texas Red or FITC-conjugated goat anti-mouse IgG2a secondary antibody (Caltag, So. San Francisco, Calif,). Cells were centrifuged through a calf serum cushion, resuspended in 200 μl of modified ice-cold Hank's balanced salt solution, and analyzed by flow cytometry.

Dx5 cells [3] = assay: Cellular accumulation of [3H]-labeled drugs; format: cell-based, human
Protocol: (§4) Cellular Accumulation of [^3 H]-Daunorubicin, [^3 H]-Vinblastine, and [^3 H]Cyclosporine. lntracellular drug accumulation was quantified using radiolabeled drugs in a modified assay. The cells were seeded in 35×10 mm tissue culture dishes (Falcon, Becton Dickinson, Lincoln Park, N.J.), at 1×10^6 cells/dish. After overnight incubation, the growth medium was replaced with serum-free McCoy's 5A medium supplemented with 40 mM Hepes buffer (Sigma Chemicals, St. Louis, Mo.). Radiolabeled drugs were added at the appropriate concentration and incubated for 1 hr at 37° C. The medium was aspirated and cell pellet solubilized in 4% SDS at 65° C. for 1 hr. Ecolite™ scintillation cocktail (INC Biochemicals, Costa Mesa, Calif.) was added and radioactivity determined on an LS-9000 scintillation counter (Beckman Instruments, Brea, Calif.). All values were normalized to protein content.

DxP cells = assay: Cellular accumulation of [3H]-labeled drugs; format: cell-based, human
Protocol: as §4

P-gp of Dx5 cells = P-gp of Dx5 cells (Homo sapiens, UniProt P08183)
Protocol: (§6) Photoaffinity Labeling with [^25 -I]-iodoarylazidoprazesin and [^3 H]-Azidopine. […] These preparations were incubated at 25° C. for 1 hour in the dark, followed by a 20 min exposure to a 366 nm UV source (UVP, Inc., San Gabriel, Calif.). 50 μl of loading buffer was added and proteins separated on an 8% SDS-polyacrylamide gel, dried, and analyzed by autoradiography.

[4] = target: P-gp of DxP cells (Phe335/336 deletion) (Homo sapiens, UniProt P08183, DEL335-335)
Protocol: as §6

MES-SA cells = assay: Growth inhibition (MTT) assay, with or without MDR modulators; format: cell-based, human; settings: MES-SA cells
Protocol: as §1, §2, §3

Dx/PAS cells = assay: MTT assay, DxP subclone; format: cell-based, human
Protocol: as §2, §3
(§5) Clonal Analysis of D×P cells. Subcloning of cells was performed by limiting dilution. Both resistant and revertant clones were analyzed for the MDR phenotype, drug accumulation, and rt-PCR or heteroduplex as described above.

Dx/PBS cells = assay: MTT assay, DxP subclone; format: cell-based, human
Protocol: as §2, §3, §5

Dx/PCS cells = assay: MTT assay, DxP subclone; format: cell-based, human
Protocol: as §2, §3, §5

Dx/PDS cells = assay: MTT assay, DxP subclone; format: cell-based, human
Protocol: as §2, §3, §5

Dx/PES cells = assay: MTT assay, DxP subclone; format: cell-based, human
Protocol: as §2, §3, §5

Dx/PFS cells = assay: MTT assay, DxP subclone; format: cell-based, human
Protocol: as §2, §3, §5

Dx/PGS cells = assay: MTT assay, DxP subclone; format: cell-based, human
Protocol: as §2, §3, §5

Dx/PHS cells = assay: MTT assay, DxP subclone; format: cell-based, human
Protocol: as §2, §3, §5

Dx/PIS cells = assay: MTT assay, DxP subclone; format: cell-based, human
Protocol: as §2, §3, §5

Dx/PJS cells = assay: MTT assay, DxP subclone; format: cell-based, human
Protocol: as §2, §3, §5

Dx/PMS cells = assay: MTT assay, DxP subclone; format: cell-based, human
Protocol: as §2, §3, §5

Sequence of P-gp of DxP cells (Phe335/336 deletion) (P08183 with tags, fused parts or gaps DEL335-335): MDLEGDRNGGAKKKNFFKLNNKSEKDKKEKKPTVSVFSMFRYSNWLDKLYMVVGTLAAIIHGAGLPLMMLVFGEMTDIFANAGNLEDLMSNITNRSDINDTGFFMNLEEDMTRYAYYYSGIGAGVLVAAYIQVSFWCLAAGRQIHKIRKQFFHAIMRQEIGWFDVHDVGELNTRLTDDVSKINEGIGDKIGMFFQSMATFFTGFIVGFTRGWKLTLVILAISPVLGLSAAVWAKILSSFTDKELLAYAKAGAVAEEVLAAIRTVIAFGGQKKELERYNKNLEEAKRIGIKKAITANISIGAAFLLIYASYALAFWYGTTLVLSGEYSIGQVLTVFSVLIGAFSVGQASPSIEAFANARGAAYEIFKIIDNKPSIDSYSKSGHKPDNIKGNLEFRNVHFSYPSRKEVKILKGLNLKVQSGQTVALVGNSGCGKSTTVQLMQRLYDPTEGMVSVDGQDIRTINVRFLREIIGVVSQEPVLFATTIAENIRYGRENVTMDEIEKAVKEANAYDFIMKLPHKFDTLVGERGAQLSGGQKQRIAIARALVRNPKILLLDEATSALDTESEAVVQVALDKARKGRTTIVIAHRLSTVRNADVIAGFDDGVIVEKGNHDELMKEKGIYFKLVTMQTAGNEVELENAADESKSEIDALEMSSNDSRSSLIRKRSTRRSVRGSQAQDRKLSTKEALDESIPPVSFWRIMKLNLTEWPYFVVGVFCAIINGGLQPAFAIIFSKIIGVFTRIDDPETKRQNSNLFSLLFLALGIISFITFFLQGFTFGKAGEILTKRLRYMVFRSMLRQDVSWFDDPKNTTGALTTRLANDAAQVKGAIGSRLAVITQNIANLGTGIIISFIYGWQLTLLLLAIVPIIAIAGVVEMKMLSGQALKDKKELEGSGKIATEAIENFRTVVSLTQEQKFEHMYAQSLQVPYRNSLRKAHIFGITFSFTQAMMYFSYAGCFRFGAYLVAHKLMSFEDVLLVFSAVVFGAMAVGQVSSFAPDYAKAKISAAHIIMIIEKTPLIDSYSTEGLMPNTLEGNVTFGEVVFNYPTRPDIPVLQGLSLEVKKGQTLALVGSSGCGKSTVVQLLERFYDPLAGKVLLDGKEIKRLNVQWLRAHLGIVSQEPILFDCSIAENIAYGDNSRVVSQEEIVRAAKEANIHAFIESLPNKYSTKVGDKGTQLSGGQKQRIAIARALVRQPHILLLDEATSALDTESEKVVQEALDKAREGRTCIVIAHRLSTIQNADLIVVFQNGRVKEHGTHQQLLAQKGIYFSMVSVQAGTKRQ
Sequence of P-gp of Dx5 cells (P08183 whole entry): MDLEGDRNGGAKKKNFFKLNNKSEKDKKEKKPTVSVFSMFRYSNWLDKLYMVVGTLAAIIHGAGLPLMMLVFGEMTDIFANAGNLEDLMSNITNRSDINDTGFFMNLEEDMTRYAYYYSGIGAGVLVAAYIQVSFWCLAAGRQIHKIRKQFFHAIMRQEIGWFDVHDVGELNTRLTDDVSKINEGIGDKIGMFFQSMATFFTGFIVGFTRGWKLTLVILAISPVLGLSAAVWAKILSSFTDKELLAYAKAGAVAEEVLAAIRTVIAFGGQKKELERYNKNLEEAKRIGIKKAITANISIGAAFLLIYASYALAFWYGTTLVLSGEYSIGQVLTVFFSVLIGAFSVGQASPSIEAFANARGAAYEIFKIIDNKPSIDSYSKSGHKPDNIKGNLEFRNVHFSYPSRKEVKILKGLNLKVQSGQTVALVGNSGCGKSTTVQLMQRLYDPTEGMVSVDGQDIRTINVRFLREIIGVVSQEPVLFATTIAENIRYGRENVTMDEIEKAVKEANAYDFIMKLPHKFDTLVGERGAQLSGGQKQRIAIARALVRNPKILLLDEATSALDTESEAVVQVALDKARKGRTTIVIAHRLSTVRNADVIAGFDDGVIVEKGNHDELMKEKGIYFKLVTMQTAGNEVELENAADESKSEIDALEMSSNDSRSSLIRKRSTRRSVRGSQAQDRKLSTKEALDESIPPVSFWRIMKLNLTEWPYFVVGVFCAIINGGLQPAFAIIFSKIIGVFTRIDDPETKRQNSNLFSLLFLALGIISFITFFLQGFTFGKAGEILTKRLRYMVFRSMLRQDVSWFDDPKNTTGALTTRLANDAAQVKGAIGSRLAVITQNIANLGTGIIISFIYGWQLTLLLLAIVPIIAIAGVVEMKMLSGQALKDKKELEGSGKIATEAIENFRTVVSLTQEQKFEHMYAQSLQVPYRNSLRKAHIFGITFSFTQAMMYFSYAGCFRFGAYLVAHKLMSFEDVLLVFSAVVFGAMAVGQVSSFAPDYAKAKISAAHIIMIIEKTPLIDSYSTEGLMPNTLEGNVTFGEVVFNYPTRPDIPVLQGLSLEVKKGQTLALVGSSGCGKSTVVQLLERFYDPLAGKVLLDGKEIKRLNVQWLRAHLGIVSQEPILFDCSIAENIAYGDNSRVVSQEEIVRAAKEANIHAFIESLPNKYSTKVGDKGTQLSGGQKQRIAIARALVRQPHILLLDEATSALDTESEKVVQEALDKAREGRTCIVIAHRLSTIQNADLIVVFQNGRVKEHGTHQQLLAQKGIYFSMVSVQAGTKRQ

- Effect on [125I]-iodoarylazidoprazosin photoaffinity labeling of P-gp (P-gp of Dx5 cells; 100 μM): abolished detectable P-gp labeling
- Effect on [125I]-iodoarylazidoprazosin photoaffinity labeling of P-gp (P-gp of Dx5 cells; 0.1 and 10 μM): effectively competed
- Displacement of [3H]-azidopine photoaffinity labeling [4]: resistant to the displacement
- Effect on [125I]-iodoarylazidoprazosin photoaffinity labeling of P-gp ([4]; 100 μM): abolished detectable P-gp labeling
- Effect on [125I]-iodoarylazidoprazosin photoaffinity labeling of P-gp ([4]; 0.1 and 10 μM): enhanced photoaffinity binding
Compound: C/C=C/C[C@@H](C)C(=O)[C@H]1C(=O)N[C@@H](C(C)C)C(=O)N(C)CC(=O)N(C)[C@@H](CC(C)C)C(=O)N[C@@H](C(C)C)C(=O)N(C)[C@@H](CC(C)C)C(=O)N[C@@H](C)C(=O)N[C@H](C)C(=O)N(C)[C@@H](CC(C)C)C(=O)N(C)[C@@H](CC(C)C)C(=O)N(C)[C@@H](C(C)C)C(=O)N1C [PSC 833]
- Modulation of MDR by the modulator (in words) (MES-SA/Dx5 (Dx5) cells; 2 μM, sensitivity to DOX, vinblastine, paclitaxel, vincristine and colchicine relative to MES-SA): completely restored the sensitivity
- Resistance of cells to the modulating effects of the modulator (in words) ([1]; DxP cells, PSC 833 2 μM, cyclosporin 3 μM, verapamil 6 μM): almost completely resistant
- Effect of modulator on Rh-123 accumulation (Dx5 cells [2]; PSC 833 2 μM): completely restored
- Modulation of decreased drug accumulation by modulator (Dx5 cells [3]): complete modulation
- Modulation of decreased [3H]-cyclosporin accumulation by modulator (Dx5 cells [3]; to levels of DxP and MES-SA cells): completely modulated
- Modulation of decreased drug accumulation by modulator (DxP cells; DxP cells): not modulated

Compound: COc1cccc2c1C(=O)c1c(O)c3c(c(O)c1C2=O)C[C@@](O)(C(=O)CO)C[C@@H]3O[C@H]1C[C@H](N)[C@H](O)[C@H](C)O1 [Doxorubicin]
- IC50 (MES-SA cells; Homo sapiens, 72 hr MTT, read-out: IC50 of drug-sensitive MES-SA cells (values in parenthesis)): 40 nM
- Fold resistance (MES-SA cells; +2 μM PSC 833): 1 fold
- Fold resistance (MES-SA cells; +3 μM cyclosporin A): 0.5 fold
- Fold resistance (MES-SA cells; +6 μM Verapamil): 0.5 fold
- Fold resistance (MES-SA cells; no modulator, 72 hr MTT): 1 fold
- Fold resistance (MES-SA/Dx5 (Dx5) cells; +2 μM PSC 833): 1 fold
- Fold resistance (MES-SA/Dx5 (Dx5) cells; +3 μM cyclosporin A): 2 fold
- Fold resistance (MES-SA/Dx5 (Dx5) cells; +6 μM Verapamil): 4 fold
- Fold resistance (MES-SA/Dx5 (Dx5) cells; no modulator, relative to MES-SA): 80 fold
- Level of resistance of DxP cells to the cytotoxin compared with parental Dx5 (in words) ([1]; DxP cells): similar
- Fold resistance ([1]; DxP cells, +2 μM PSC 833): 53 fold
- Fold resistance ([1]; DxP cells, +3 μM cyclosporin A): 30 fold
- Fold resistance ([1]; DxP cells, +6 μM Verapamil): 18 fold
- Fold resistance ([1]; DxP cells, no modulator, relative to MES-SA): 77 fold
- Dx5/DxP, fold of resistance difference in DxP cells compared with parental Dx5 cells ([1]; DxP vs Dx5): 1 fold
- fold resistance relative to MES-SA (Dx/PAS cells; + PSC): 51 fold
- fold resistance relative to MES-SA (Dx/PAS cells; no modulator): 163 fold
- fold resistance relative to MES-SA (Dx/PBS cells; + PSC): 13 fold
- fold resistance relative to MES-SA (Dx/PBS cells; no modulator): 67 fold
- fold resistance relative to MES-SA (Dx/PCS cells; + PSC): 23 fold
- fold resistance relative to MES-SA (Dx/PCS cells; no modulator): 50 fold
- fold resistance relative to MES-SA (Dx/PDS cells; + PSC): 100 fold
- fold resistance relative to MES-SA (Dx/PDS cells; no modulator): 150 fold
- fold resistance relative to MES-SA (Dx/PES cells; + PSC): 100 fold
- fold resistance relative to MES-SA (Dx/PES cells; no modulator): 96 fold
- fold resistance relative to MES-SA (Dx/PFS cells; + PSC): 75 fold
- fold resistance relative to MES-SA (Dx/PFS cells; no modulator): 150 fold
- fold resistance relative to MES-SA (Dx/PGS cells; + PSC): 7 fold
- fold resistance relative to MES-SA (Dx/PGS cells; no modulator): 7 fold
- fold resistance relative to MES-SA (Dx/PHS cells; + PSC): 37 fold
- fold resistance relative to MES-SA (Dx/PHS cells; no modulator): 83 fold
- fold resistance relative to MES-SA (Dx/PIS cells; + PSC): 3 fold
- fold resistance relative to MES-SA (Dx/PIS cells; no modulator): 13 fold
- fold resistance relative to MES-SA (Dx/PJS cells; + PSC): 75 fold
- fold resistance relative to MES-SA (Dx/PJS cells; no modulator): 175 fold
- fold resistance relative to MES-SA (Dx/PMS cells; + PSC): 50 fold
- fold resistance relative to MES-SA (Dx/PMS cells; no modulator): 100 fold

Compound: [^3 H]-vinblastine
- Intracellular accumulation in DxP relative to Dx5 cells (DxP cells; [3H]-labeled drug, 1 hr): approximately 3 fold

Compound: Rhodamine-123 [Rh-123]
- Cellular accumulation of Rh-123 (Dx5 cells [2]): markedly decreased
